Assay results reported in EP1090023B1 (GLAXO GROUP LIMITED, priority 1998, dated 1999).

How the values were obtained:
Assay type in all cases: cell-based
adenosine 3 = molecular target: T1, adenosine 3 (Homo sapiens, UniProt P0DMS8); test: Agonist activity against adenosine receptor subtypes, CHO cells with cAMP response element/SPAP reporter (forskolin-enhanced cAMP); conditions: ratio to EC50 of NECA; transfected CHO cells; effect on forskolin-enhanced cAMP via SPAP
T1 sequence (P0DMS8 1-318): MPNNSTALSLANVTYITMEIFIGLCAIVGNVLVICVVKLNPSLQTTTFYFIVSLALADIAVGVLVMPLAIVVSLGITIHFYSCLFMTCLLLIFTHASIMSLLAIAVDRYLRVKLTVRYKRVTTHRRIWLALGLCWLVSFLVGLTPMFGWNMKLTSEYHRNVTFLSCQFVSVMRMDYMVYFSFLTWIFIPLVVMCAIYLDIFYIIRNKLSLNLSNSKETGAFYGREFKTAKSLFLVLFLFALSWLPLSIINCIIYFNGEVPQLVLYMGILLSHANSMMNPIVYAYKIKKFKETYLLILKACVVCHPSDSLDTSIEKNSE
In short: (§1)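 Human adenosine receptor-transfected CHO cells carrying a cAMP response element–SPAP reporter; agonism read as SPAP change from basal cAMP for A2a, or from forskolin-enhanced cAMP for A1 and A3. EC50 expressed as ratio to that of NECA, a non-selective agonist.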

adenosine 1 = molecular target: T2, adenosine 1 (Homo sapiens, UniProt P30542); test: as above; conditions: ratio to EC50 of NECA; transfected CHO cells; effect on forskolin-enhanced cAMP via SPAP
T2 sequence (P30542 1-326): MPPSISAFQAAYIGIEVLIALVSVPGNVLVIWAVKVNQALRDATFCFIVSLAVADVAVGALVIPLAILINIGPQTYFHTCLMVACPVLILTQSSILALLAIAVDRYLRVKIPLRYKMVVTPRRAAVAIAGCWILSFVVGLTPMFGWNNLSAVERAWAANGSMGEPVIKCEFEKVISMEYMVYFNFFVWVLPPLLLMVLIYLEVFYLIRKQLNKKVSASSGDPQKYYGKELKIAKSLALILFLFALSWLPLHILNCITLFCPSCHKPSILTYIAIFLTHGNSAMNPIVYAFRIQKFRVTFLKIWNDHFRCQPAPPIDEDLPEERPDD
In short: as §1

adenosine 2a = adenosine 2a (Homo sapiens, UniProt P29274); test: Agonist activity against adenosine receptor subtypes, CHO cells with cAMP response element/SPAP reporter (basal cAMP); conditions: ratio to EC50 of NECA; transfected CHO cells; effect on basal cAMP via SPAP
adenosine 2a, sequence (P29274 whole entry): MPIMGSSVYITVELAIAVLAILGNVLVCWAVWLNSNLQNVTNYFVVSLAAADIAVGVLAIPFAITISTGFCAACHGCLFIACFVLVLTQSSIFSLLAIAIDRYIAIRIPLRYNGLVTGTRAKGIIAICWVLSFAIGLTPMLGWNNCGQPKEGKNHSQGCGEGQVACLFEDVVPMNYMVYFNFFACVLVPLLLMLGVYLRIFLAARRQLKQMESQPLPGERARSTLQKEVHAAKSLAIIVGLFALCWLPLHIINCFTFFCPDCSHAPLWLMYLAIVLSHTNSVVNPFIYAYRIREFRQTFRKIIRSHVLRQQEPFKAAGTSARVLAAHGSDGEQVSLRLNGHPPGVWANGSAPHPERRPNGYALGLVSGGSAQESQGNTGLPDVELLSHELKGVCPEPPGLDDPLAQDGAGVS
In short: as §1

| Molecule | A3 (EC50 values as a ratio of that of NECA) (adenosine 3) | A1 (EC50 values as a ratio of that of NECA) (adenosine 1) | A2a (EC50 values as a ratio of that of NECA) (adenosine 2a) |
| --- | --- | --- | --- |
| CCC(CC)Nc1nc(NCCC2CCCCC2)nc2c1ncn2C1OC(c2nnc(C3CC3)o2)C(O)C1O.O=CO.O=CO [Example 41, (2R,3R,4S,5S)-2-[2-(2-Cyclohexyl-ethylamino)-6-(1-ethyl-propylamino)-purin-9-yl]-5-(5-cyclopropyl-[1,3,4]oxadiazol-2-yl)-tetrahydro-furan-3,4-diol diformate] | >249 | 1921.5 | 74.29 |
| CCC(CC)Nc1nc(N[C@H](CO)C(C)C)nc2c1ncn2[C@@H]1O[C@H](c2nnc(C3CC3)o2)[C@@H](O)[C@H]1O.O=CO [Example 42, (2R,3R,4S,5S)-2-[6-(1-Ethyl-propylamino)-2-(1S-hydroxymethyl-2-methyl-propylamino)-purin-9-yl]-5-(5-cyclopropyl-[1,3,4]oxadiazol-2-yl)-tetrahydro-furan-3,4-diol formate] | >87 | 306.9 | 41.04 |
| CCc1cc([C@H]2O[C@@H](n3cnc4c(NC(CC)CC)nc(NCCN5CCCCC5)nc43)[C@H](O)[C@@H]2O)no1.O=CO.O=CO [Example 43, (2R,3R,4S,5R)-2-[6-(1-Ethyl-propylamino)-2-(2-piperidin-1-yl-ethylamino)-purin-9-yl]-5-(5-ethylisoxazol-3-yl)tetrahydrofuran-3,4-diol diformate] | >1124 | 21.82 | 3.25 |
| (2R,3R,4S,5R)-2-[6-(2,2-Diphenyl-ethylamino)-2-(1R-hydroxy-2-phenyl-ethylamino)-purin-9-yl]-5-(1-ethyl-1H-[1,2,4]triazol-3-yl)-tetrahydro-furan-3,4-diol formate [Example 35] | >240 | 5261.1 | 6.33 |
| (2R,3R,4S,5S)-2-[6-(2,2-Diphenyl-ethylamino)-2-(2-piperidin-1-yl-ethylamino)-purin-9-yl]-5-[5-methyl-[1,3,4]thiadiazol-2-yl)-tetrahydro-furan-3,4-diol diformate [Example 28] | >245 | 3371 | 37.3 |
